# Data as given in patent US20160279088A1, “COMPOSITION FOR PROMOTING DIFFERENTIATION OR PROLIFERATION OF ERYTHROCYTIC CELLS, CONTAINING MONOACETYL DIACYLGLYCEROL COMPOUND AS ACTIVE INGREDIENT” (ENZYCHEM LIFESCIENCES CORPORATION, priority 2013, published 2016).
# Entries after “also recorded” stand apart in the source; their conditions may differ.
# What was measured:
# erythroid cells = test: FACS analysis of erythroid cells (TER-119) in bone marrow cells of mice treated with EC-18; assay type: in vivo, C57BL mouse; settings: C57BL mice, EC-18 orally 50 mg/kg for seven days; untreated mice 31.2%
# Description: Bone marrow cells were isolated from C57BL mice in the following manner. A total of eight 9-week-old C57 BL mice weighting […] were used in the experiment. Three mice were used as control (C1-3). EC-18 was administered orally to five mice at a dose of 50 mg/kg for seven days. Mice were sacrificed by […] and sterilized with 70% alcohol. The tissue of tibia and femur was cut, skin was removed and muscles were taken out. After removing tibia by breaking it in the opposite direction, the sample was washed with 70% alcohol and placed in PBS. After removing the cartilage between femur and tibia, muscles were removed from femur. Femur was separated from pelvis, washed in 70% alcohol and placed in PBS. In order to isolate bone marrow cells from femur, the pelvic end was cut and after filling the 1 ml syringe with culture media, the needle was injected into the cartilage in the knee side to allow bone marrow cells to be pushed out. […]
# Differentiation and proliferation of erythroid cells in bone marrow cells collected from C57BL mice treated with EC-18 were analyzed by using TER-119 antibody (BD Biosciences-Pharmingen, San Jose, Calif., USA), which is a marker of erythroid cells, and FACS. […] Bone marrow cells isolated by the method of Example 2 were stained by incubating with anti-TER119-FITC antibody and analyzed by using FACscan flow cytometer (Becton Dickinson, San Jose, Calif.).
# [1] = tested on: cells other than erythroid cells in bone marrow cells; test: FACS analysis of other bone marrow cells (B, T, DC, macrophages, neutrophils, NK) of mice treated with EC-18; assay type: in vivo, C57BL mouse; settings: C57BL mice, EC-18 orally 50 mg/kg for seven days, CD19, CD4, CD8, CD11c, CD11b/F4, CD11b/ly, CD122 antibodies
# Description: Bone marrow cells were isolated from C57BL mice in the following manner. A total of eight 9-week-old C57 BL mice weighting […] were used in the experiment. Three mice were used as control (C1-3). EC-18 was administered orally to five mice at a dose of 50 mg/kg for seven days. Mice were sacrificed by […] and sterilized with 70% alcohol. The tissue of tibia and femur was cut, skin was removed and muscles were taken out. After removing tibia by breaking it in the opposite direction, the sample was washed with 70% alcohol and placed in PBS. After removing the cartilage between femur and tibia, muscles were removed from femur. Femur was separated from pelvis, washed in 70% alcohol and placed in PBS. In order to isolate bone marrow cells from femur, the pelvic end was cut and after filling the 1 ml syringe with culture media, the needle was injected into the cartilage in the knee side to allow bone marrow cells to be pushed out. The culture media containing bone marrow cells was transferred to a tube and the tube was centrifuged. […]
# Bone marrow cells isolated from C57BL mice treated with EC-18 (EC1-EC5, EC-18) and untreated mice (C1-C3, con) were compared. […] Cells were incubated with TER-119, CD19, CD4, CD8, CD11c, CD11b/ly, CD122 antibodies (BD Biosciences-Pharmingen, San Jose, CA, USA) for 1 hour and analyzed using FACscan flow cytometer (Becton Dickinson, San Jose, Calif.).
# erythrocytes = test: Concentration of erythrocytes in blood of phenyl hydrazine anemia-induced mice; assay type: in vivo, mouse; settings: EC-18 orally 5 mg/ml
# Description: To observe changes in the level of erythrocytes in mouse blood, anemia-induced mice were prepared by administering phenyl hydrazine (PHZ) intraperitoneally into mice weighing […] at a dose of […]. After administering EC-18 orally to the mice at a dose of 5 mg/ml, blood was collected after 3 days and 13 days. For comparison, a normal group that was not treated with phenyl hydrazine and a control group that was treated with olive oil instead of EC-18 were prepared and blood was collected from the groups after 3 days and 13 days. Collected blood was transferred to EDTA bottle 0.5 ml (Minicollect tube, Greiner bio-one, Austria) and the concentration of erythrocytes (number per pl, unit: 10^6) was measured using a flow cytometer, Auto Hematology Analyzer BC-5300 (Mindray, Shenzhen, China). FIG. 5 is a graph showing the concentration of erythrocytes 3 days after phenyl hydrazine treatment in the normal group, the control group (treated with PHZ and olive oil) and the test group (treated with PHZ and EC-18). FIG. 6 is a graph showing the concentration of erythrocytes 13 days after phenyl hydrazine treatment in the normal group, the control group and the test group.
# [2] = sepsis animal model, cecal-ligation-puncture; cited from earlier work
# [3] = GLP toxicity test; cited from earlier work
smiles,measurement,setting,value
"CCCCC/C=C\C/C=C\CCCCCCCC(=O)OC(COC(C)=O)COC(=O)CCCCCCCCCCCCCCC (stereo not drawn) [EC-18, 1-palmitoyl-2-linoleoyl-3-acetylglycerol]","percentage of erythroid cells in bone marrow cells (TER-119, FACS)",erythroid cells,41.7%
same,ratio of cells other than erythroid cells in bone marrow cells,[1],maintained same; also recorded: not changed
same,concentration of erythrocytes in blood 3 days after PHZ treatment,"erythrocytes; vs control (PHZ and olive oil), 3 days",mitigates the reduction of erythrocytes
same,concentration of erythrocytes in blood 13 days after PHZ treatment,"erythrocytes; vs normal group, 13 days",slightly higher than the normal level
same,survivability ratio of animals,[2],increases survivability ratio
same,toxicity,[3],no toxicity
